Values after ≈ are worked out from the molar mass of the structure shown.
Tests used:
Conditions in all cases: agar dilution
[1] = test system: Staphylococcus aureus NRRL B313
[2] = test system: Streptococcus pneumoniae Park 1
[3] = test system: Klebsiella pneumoniae X26
[4] = test system: Haemophilus influenzae 76
Escherichia coli EC14 = test system: Escherichia coli EC14
[5] = test system: Staphylococcus aureus S13E
Escherichia coli N10 = test system: Escherichia coli N10
[6] = test system: Streptococcus faecium ATCC 9790
[7] = test system: Streptococcus pyogenes C203
[8] = test system: Haemophilus influenzae C.L.
[9] = test system: Staphylococcus aureus X400
[10] = test system: Staphylococcus epidermidis 222
[11] = test system: Klebsiella pneumoniae KAE
[12] = test system: Streptococcus sp. group D 2041
[13] = test system: Staphylococcus aureus V41
[14] = test system: Staphylococcus epidermidis EPI1
Escherichia coli TEM = test system: Escherichia coli TEM
[15] = test system: Klebsiella pneumoniae X68

| Structure (SMILES) | MIC [1] | MIC [2] | MIC [3] | MIC [4] | MIC (Escherichia coli EC14) | MIC [5] | MIC (Escherichia coli N10) | MIC [6] | MIC [7] | MIC [8] | MIC [9] | MIC [10] | MIC [11] | MIC [12] | MIC [13] | MIC [14] | MIC (Escherichia coli TEM) | MIC [15] |
| --- | --- | --- | --- | --- | --- | --- | --- | --- | --- | --- | --- | --- | --- | --- | --- | --- | --- | --- |
| CCCCCCCC(=O)N(C)C(CC(C)C)C(=O)NC1C(=O)NC(CC(N)=O)C(=O)NC2C(=O)NC3C(=O)NC(C(=O)NC(C(=O)O)c4cc(O)cc(O)c4-c4cc3ccc4O)C(O)c3ccc(c(Cl)c3)Oc3cc2cc(c3OC2OC(CO)C(O)C(O)C2OC2CC(C)(N)C(O)C(C)O2)Oc2ccc(cc2Cl)C1O (stereo not drawn) [Compound 4, N^leu --(1-oxo-n-octyl)vancomycin] | 8 µg/mL (≈ 5.08 µM) | 2 µg/mL (≈ 1.27 µM) | -- (not active at 128 mcg/ml) | -- (not active at 128 mcg/ml) | -- (not active at 128 mcg/ml) | 8 µg/mL (≈ 5.08 µM) | -- (not active at 128 mcg/ml) | 8 µg/mL (≈ 5.08 µM) | 4 µg/mL (≈ 2.54 µM) | -- (not active at 128 mcg/ml) | 8 µg/mL (≈ 5.08 µM) | 16 µg/mL (≈ 10.2 µM) | -- (not active at 128 mcg/ml) | 16 µg/mL (≈ 10.2 µM) | 8 µg/mL (≈ 5.08 µM) | 32 µg/mL (≈ 20.3 µM) | -- (not active at 128 mcg/ml) | -- (not active at 128 mcg/ml) |
| CCCCCCCC(=O)NC1(C)CC(OC2C(Oc3c4cc5cc3Oc3ccc(cc3Cl)C(O)C(NC(=O)C(CC(C)C)N(C)C(=O)CCCCCCC)C(=O)NC(CC(N)=O)C(=O)NC5C(=O)NC3C(=O)NC(C(=O)NC(C(=O)O)c5cc(O)cc(O)c5-c5cc3ccc5O)C(O)c3ccc(c(Cl)c3)O4)OC(CO)C(O)C2O)OC(C)C1O (stereo not drawn) [Compound 5, N^van,N^leu --di(1-oxo-n-octyl)vancomycin] | 32 µg/mL (≈ 18.8 µM) | 32 µg/mL (≈ 18.8 µM) | -- (not active at 128 mcg/ml) | -- (not active at 128 mcg/ml) | -- (not active at 128 mcg/ml) | 32 µg/mL (≈ 18.8 µM) | -- (not active at 128 mcg/ml) | 32 µg/mL (≈ 18.8 µM) | 32 µg/mL (≈ 18.8 µM) | -- (not active at 128 mcg/ml) | 32 µg/mL (≈ 18.8 µM) | 64 µg/mL (≈ 37.6 µM) | -- (not active at 128 mcg/ml) | 32 µg/mL (≈ 18.8 µM) | 32 µg/mL (≈ 18.8 µM) | -- (not active at 128 mcg/ml) | -- (not active at 128 mcg/ml) | -- (not active at 128 mcg/ml) |
| CCCCCCCCCC(=O)NC1(C)CC(OC2C(Oc3c4cc5cc3Oc3ccc(cc3Cl)C(O)C(NC(=O)C(CC(C)C)N(C)C(=O)CCCCCCCCC)C(=O)NC(CC(N)=O)C(=O)NC5C(=O)NC3C(=O)NC(C(=O)NC(C(=O)O)c5cc(O)cc(O)c5-c5cc3ccc5O)C(O)c3ccc(c(Cl)c3)O4)OC(CO)C(O)C2O)OC(C)C1O (stereo not drawn) [Compound 8, N^van,N^leu-di(1-oxo-n-decyl)vancomycin] | 2 µg/mL (≈ 1.14 µM) | 16 µg/mL (≈ 9.1 µM) | -- (not active at 128 mcg/ml) | -- (not active at 128 mcg/ml) | -- (not active at 128 mcg/ml) | 8 µg/mL (≈ 4.55 µM) | -- (not active at 128 mcg/ml) | 8 µg/mL (≈ 4.55 µM) | 4 µg/mL (≈ 2.28 µM) | -- (not active at 128 mcg/ml) | 4 µg/mL (≈ 2.28 µM) | 8 µg/mL (≈ 4.55 µM) | -- (not active at 128 mcg/ml) | 8 µg/mL (≈ 4.55 µM) | 4 µg/mL (≈ 2.28 µM) | 32 µg/mL (≈ 18.2 µM) | -- (not active at 128 mcg/ml) | -- (not active at 128 mcg/ml) |
| C=CCCCCCCCCC(=O)N(C)C(CC(C)C)C(=O)NC1C(=O)NC(CC(N)=O)C(=O)NC2C(=O)NC3C(=O)NC(C(=O)NC(C(=O)O)c4cc(O)cc(O)c4-c4cc3ccc4O)C(O)c3ccc(c(Cl)c3)Oc3cc2cc(c3OC2OC(CO)C(O)C(O)C2OC2CC(C)(N)C(O)C(C)O2)Oc2ccc(cc2Cl)C1O (stereo not drawn) [Compound 10, N^leu --(1-oxo-10-n-decenyl)vancomycin] | 4 µg/mL (≈ 2.48 µM) | 2 µg/mL (≈ 1.24 µM) | -- (not active at 128 mcg/ml) | -- (not active at 128 mcg/ml) | -- (not active at 128 mcg/ml) | 4 µg/mL (≈ 2.48 µM) | -- (not active at 128 mcg/ml) | 2 µg/mL (≈ 1.24 µM) | 1 µg/mL (≈ 0.619 µM) | -- (not active at 128 mcg/ml) | 4 µg/mL (≈ 2.48 µM) | 8 µg/mL (≈ 4.95 µM) | -- (not active at 128 mcg/ml) | 4 µg/mL (≈ 2.48 µM) | 4 µg/mL (≈ 2.48 µM) | 32 µg/mL (≈ 19.8 µM) | -- (not active at 128 mcg/ml) | -- (not active at 128 mcg/ml) |
| C=CCCCCCCCCC(=O)NC1(C)CC(OC2C(Oc3c4cc5cc3Oc3ccc(cc3Cl)C(O)C(NC(=O)C(CC(C)C)N(C)C(=O)CCCCCCCCC=C)C(=O)NC(CC(N)=O)C(=O)NC5C(=O)NC3C(=O)NC(C(=O)NC(C(=O)O)c5cc(O)cc(O)c5-c5cc3ccc5O)C(O)c3ccc(c(Cl)c3)O4)OC(CO)C(O)C2O)OC(C)C1O (stereo not drawn) [Compound 11, N^van,N^leu --(1-oxo-10-n-decenyl)vancomycin] | 8 µg/mL (≈ 4.49 µM) | 4 µg/mL (≈ 2.24 µM) | 128 µg/mL (≈ 71.8 µM) | 32 µg/mL (≈ 18 µM) | 128 µg/mL (≈ 71.8 µM) | 8 µg/mL (≈ 4.49 µM) | 128 µg/mL (≈ 71.8 µM) | 8 µg/mL (≈ 4.49 µM) | 2 µg/mL (≈ 1.12 µM) | 32 µg/mL (≈ 18 µM) | 16 µg/mL (≈ 8.98 µM) | 16 µg/mL (≈ 8.98 µM) | 128 µg/mL (≈ 71.8 µM) | 16 µg/mL (≈ 8.98 µM) | 8 µg/mL (≈ 4.49 µM) | 64 µg/mL (≈ 35.9 µM) | 64 µg/mL (≈ 35.9 µM) | 128 µg/mL (≈ 71.8 µM) |
| CCCCCCCCCCCC(=O)N(C)C(CC(C)C)C(=O)NC1C(=O)NC(CC(N)=O)C(=O)NC2C(=O)NC3C(=O)NC(C(=O)NC(C(=O)O)c4cc(O)cc(O)c4-c4cc3ccc4O)C(O)c3ccc(c(Cl)c3)Oc3cc2cc(c3OC2OC(CO)C(O)C(O)C2OC2CC(C)(N)C(O)C(C)O2)Oc2ccc(cc2Cl)C1O (stereo not drawn) [Compound 13, N^leu --(1-oxo-n-dodecyl)vancomycin] | 8 µg/mL (≈ 4.9 µM) | 8 µg/mL (≈ 4.9 µM) | -- (not active at 128 mcg/ml) | 32 µg/mL (≈ 19.6 µM) | -- (not active at 128 mcg/ml) | 8 µg/mL (≈ 4.9 µM) | -- (not active at 128 mcg/ml) | 8 µg/mL (≈ 4.9 µM) | 8 µg/mL (≈ 4.9 µM) | 128 µg/mL (≈ 78.5 µM) | 8 µg/mL (≈ 4.9 µM) | 8 µg/mL (≈ 4.9 µM) | -- (not active at 128 mcg/ml) | 8 µg/mL (≈ 4.9 µM) | 8 µg/mL (≈ 4.9 µM) | 32 µg/mL (≈ 19.6 µM) | -- (not active at 128 mcg/ml) | -- (not active at 128 mcg/ml) |
| CCC(CC)C(=O)NC1(C)CC(OC2C(Oc3c4cc5cc3Oc3ccc(cc3Cl)C(O)C3NC(=O)C(NC(=O)C5NC(=O)C(CC(N)=O)NC(=O)C(NC(=O)C(CC(C)C)NC)C(O)c5ccc(c(Cl)c5)O4)c4ccc(O)c(c4)-c4c(O)cc(O)cc4C(C(=O)O)NC3=O)OC(CO)C(O)C2O)OC(C)C1O (stereo not drawn) [Compound 22, N^van --(2-ethyl-1-oxo-n-butyl)vancomycin] | 2 µg/mL (≈ 1.29 µM) | 2 µg/mL (≈ 1.29 µM) | -- (not active at 128 mcg/ml) | 128 µg/mL (≈ 82.7 µM) | -- (not active at 128 mcg/ml) | 2 µg/mL (≈ 1.29 µM) | -- (not active at 128 mcg/ml) | 2 µg/mL (≈ 1.29 µM) | 2 µg/mL (≈ 1.29 µM) | 128 µg/mL (≈ 82.7 µM) | 2 µg/mL (≈ 1.29 µM) | 2 µg/mL (≈ 1.29 µM) | -- (not active at 128 mcg/ml) | 8 µg/mL (≈ 5.17 µM) | 2 µg/mL (≈ 1.29 µM) | 8 µg/mL (≈ 5.17 µM) | -- (not active at 128 mcg/ml) | -- (not active at 128 mcg/ml) |
| CNC(CC(C)C)C(=O)NC1C(=O)NC(CC(N)=O)C(=O)NC2C(=O)NC3C(=O)NC(C(=O)NC(C(=O)O)c4cc(O)cc(O)c4-c4cc3ccc4O)C(O)c3ccc(c(Cl)c3)Oc3cc2cc(c3OC2OC(CO)C(O)C(O)C2OC2CC(C)(NC(=O)C(NC(=O)OCc3ccccc3)C(C)C)C(O)C(C)O2)Oc2ccc(cc2Cl)C1O (stereo not drawn) [Compound 32, N^van-[2-(N--Cbz--amino)-1-oxo-isopentyl]vancomycin] | 4 µg/mL (≈ 2.38 µM) | 2 µg/mL (≈ 1.19 µM) | -- (not active at 128 mcg/ml) | 128 µg/mL (≈ 76.1 µM) | -- (not active at 128 mcg/ml) | 4 µg/mL (≈ 2.38 µM) | -- (not active at 128 mcg/ml) | 4 µg/mL (≈ 2.38 µM) | 2 µg/mL (≈ 1.19 µM) | 128 µg/mL (≈ 76.1 µM) | 8 µg/mL (≈ 4.75 µM) | 8 µg/mL (≈ 4.75 µM) | -- (not active at 128 mcg/ml) | 8 µg/mL (≈ 4.75 µM) | 4 µg/mL (≈ 2.38 µM) | 32 µg/mL (≈ 19 µM) | -- (not active at 128 mcg/ml) | -- (not active at 128 mcg/ml) |

From patent US4639433A, “Glycopeptide derivatives” (Eli Lilly and Company, priority 1985, dated 1987)
